Read-outs that look alike come from different tables or passages of the source. Where a SMILES comes first, the peptide text is derived from it. [ ]: non-standard residue; d: D form. Ahx = NCCCCCC(=O)O
Experiments:
[1] = tested on: Salmonella gene expression; test: RNA-seq transcriptomic response; assay type: cell-based, Salmonella enterica serovar Typhimurium; details: 15 min; for number of differentially expressed genes: absolute fold change >2 and FDR-adjusted P-value <0.001 versus water; for number of differentially expressed genes / logFC AmgR / logFC mig-14 / logFC virK: 5 μM KFF-/RXR-constructs
Description: Bacterial overnight cultures were diluted 1:100 in fresh MHB and grown to OD600 0.5. The obtained cultures were diluted to ∼10^6 cfu/ml in non-cation-adjusted MHB. Afterward, the bacterial solution was transferred into low-binding 5 ml tubes (LABsolute) along with the 20× PNA, peptide or PPNA solution. The final concentrations were 5 μM for KFF- and RXR-PNAs, and 10 μM for Tat-PNAs. Equimolar concentrations were used for the respective peptide control conditions. As a negative control, cells were treated with the respective volume of sterile nuclease-free water, which was used as solvent for the test compounds.
A time kinetic was performed for subsequent northern blot analysis (5, 10, 15 min), in which the reaction was stopped at the indicated time points by using RNAprotect Bacteria (Qiagen). For RNA-seq analyses, adding RNAprotect Bacteria at 15 min post treatment stopped the reactions with the indicated PPNA constructs or the respective peptide. After vortexing for 5 s, the samples were incubated at room temperature for 10 min, followed by cell pelleting at 4°C and 21 100 ×g for 20 min. Pellets were directly used for RNA isolation or stored at –20°C (<2 days) until further processing. RNA was purified from bacterial pellets using isolation protocol #3, as described above (0.5 mg/ml lysozyme, miRNeasy).
DNase treatment, cDNA library preparation and sequencing was conducted at Vertis (Munich, Germany). The RNA samples were first fragmented using ultrasound (4 pulses of 30 s each at 4°C). Then, an oligonucleotide adapter was ligated to the 3′ ends of the RNA molecules. First-strand cDNA synthesis was performed using M-MLV reverse transcriptase and the 3′ adapter as primer. The first-strand cDNA was purified and the 5′ Illumina TruSeq sequencing adapter was ligated to the 3′ end of the antisense cDNA. The resulting cDNA was PCR-amplified to about 10–20 ng/μl using a high fidelity DNA polymerase. The cDNA was purified using the Agencourt AMPure XP kit (Beckman Coulter Genomics) and was analyzed by capillary electrophoresis. For Illumina NextSeq sequencing, the samples were pooled in approximately equimolar amounts. The cDNA pool was sequenced on an Illumina NextSeq 500 system using 75 bp read length.
Reads from the RNA-Seq experiments were trimmed, filtered and mapped against the S. enterica subsp. enterica serovar Typhimurium SL1344 reference genome and the three plasmids pSLT_SL1344, pCol1B9_SL1344 (other name is p2), and pRSF1010_SL1344 ([19]). BBDuk was applied to trim bases with a Phred quality score of <10, and adapters were removed simultaneously. Reads were then mapped against the reference genome using BBMap (v38.84) and then assigned genomic features, including both coding sequences and annotated sRNAs ([19],[29]) using the featureCounts method of the Subread (2.0.1) package.
All downstream analysis was performed using packages from the R/Bioconductor project. The raw read counts were imported and analyzed with edgeR (v3.30.0). Each set of PNA-peptide conjugate experiments (i.e. experiments with KFF, RXR and Tat peptide) was analyzed simultaneously. Genes with less than 14.6 counts per million (CPM) in at least three libraries were filtered. This cutoff value was calculated using 10/L, where L is the library size of the smallest sample (minimum library size) in millions.
Raw read counts were normalized by trimmed mean of M values (TMM) normalization. Differential expression analysis was conducted using edgeR ([31]). Estimation of quasi-likelihood (QL) dispersions was then run with the […] function. Then contrasts between all samples versus the water controls were created as input for the glmQLTest function.
Genes with an absolute fold change >2 and an adjusted P-value (Benjamini–Hochberg, ([32])) <0.001 were considered differentially expressed.

[2] = tested on: wild-type (wt) Salmonella enterica serovar Typhimurium strain SL1344
Description: (§1) MIC values were determined by broth microdilution according to standard protocols with a few modifications ([26]). An overnight bacterial cell culture, supplemented with the appropriate antibiotic when needed, was diluted 1:100 in fresh MHB and grown to OD600 0.5. The obtained culture was diluted to ∼10^5 cfu/ml or 10^6 cfu/ml, as indicated, in non-cation-adjusted MHB. Subsequently, 190 μl bacterial solution was dispensed into a 96-well plate (Thermo Fisher Scientific) along with 10 μl of a 20x PPNA, PNA or peptide working solution. Growth was monitored by measuring the OD at 600 nm every 20 min in a Synergy H1 plate reader (Biotek) with continuous double-orbital shaking (237 cpm) at 37°C for 24 h.

[3] = tested on: SL1344 ΔphoP; test: MIC determination by broth microdilution; assay type: cell-based, Salmonella enterica serovar Typhimurium; details: Table 3; ∼10^5 cfu/ml; three biological replicates
Description: as §1
Fig. S4. Growth kinetics for MIC determ ination of 10^5 cfu/m l Salmonella wt (SL1344) and its isogenic ∆phoP m utant in the pres ence of var ying concentrations of the indicated conjugates. ( A) KFF-acpP, KFF-acpP-scram bled (scr) or KFF peptide in serial dilutions from 10 µM to 0.3 µM. ( B) RXR- acpP, RXR-acpP-scram bled (scr) or RXR peptide in seria l d ilutions f rom 10 µM to 0. 3 µM. ( C) T at-acpP, T at-acpP-scrambled (scr) or T at peptide in serial dilutions from 20 µM to 0.6 µM. D ata represent the average of three biological replicates, error bars indicate standard er ror of the m ean […]
(§2) (1 picture or pasted object on this page, not shown here)

[4] = tested on: wild-type Salmonella enterica serovar Typhimurium strain LT2; test: MIC determination by broth microdilution; assay type: cell-based; details: Table 3; ∼10^5 cfu/ml; three biological replicates
Description: as §1
(§3) Fig. S5. Growth k inetics for MIC determ ination of 10^5 cfu/m l Salmonella wt (LT 2) and its isogenic
(§4) Pho PC m utant in the presen ce of var ying co ncentra tio n s of the in dicat ed co njugat e s. ( A) KFF-acpP,
(§5) KFF-acpP-scram bled (scr) or KFF peptide in s erial dilutions from 10 µM to 0.3 µM. ( B) RXR- acpP,
(§6) RXR- acpP-scram bled (scr) or RXR peptide in serial dilutions from 10 µM to 0.3 µ M. ( C) T at-acpP,
(§7) T at-acpP-scram bled (scr) or T at peptide in serial dilutions from 20 µM to 0.6 µM. Data represent
(§8) the average of three biological replicates, error bars indicate standard error of the m ean (SEM).
as §2

[5] = tested on: LT2 PhoP^C; test: MIC determination by broth microdilution; assay type: cell-based, Salmonella enterica serovar Typhimurium; details: Table 3; ∼10^5 cfu/ml; three biological replicates
Description: as §1, §3, §4, §5, §6, §7, §8, §2

[6] = edgeR, versus water, 10 μM Tat-constructs, triplicates
[7] = edgeR, versus water, 5 μM, triplicates
[8] = wild-type (wt) serovar Typhimurium strain SL1344, 24 h
[9] = edgeR, versus water, 5 μM RXR-constructs, 10 μM Tat-constructs, triplicates
[10] = edgeR, versus water, 10 μM, triplicates
[11] = edgeR, versus water, 5 μM RXR-constructs, 10 μM Tat-constructs, triplicates, listed as PNATATscr
[12] = Table 1, ∼10^5 cfu/ml, non-cation-adjusted MHB, 37°C, 24 h, lowest concentration with OD600 < 0.1
[13] = Table 2, ∼10^6 cfu/ml, non-cation-adjusted MHB, 37°C, 24 h, performed three times
[14] = Table 3, ∼10^5 cfu/ml, three biological replicates
[15] = edgeR, versus water, 10 μM Tat-constructs, triplicates, listed as PNAKFFscr

Compound: CC(=O)N[C@@H](CCCCN)C(=O)N[C@@H](Cc1ccccc1)C(=O)N[C@@H](Cc1ccccc1)C(=O)N[C@@H](CCCCN)C(=O)N[C@@H](Cc1ccccc1)C(=O)N[C@@H](Cc1ccccc1)C(=O)N[C@@H](CCCCN)C(=O)N[C@@H](Cc1ccccc1)C(=O)N[C@@H](Cc1ccccc1)C(=O)N[C@@H](CCCCN)C(=O)O [KFF, reference compound] (Ac-KFFKFFKFFK-OH; C-terminus assumed)
- number of differentially expressed genes ([1]; 10 μM Tat-constructs): 32
- upregulation of AmgR transcript levels ([1]; RNA-seq, 5 μM): ~4 fold
- logFC AmgR [1, 6]: 1.914
- logFC mig-14 [1, 6]: 2.101
- logFC virK [1, 6]: 2.978
- logFC yfbE [1, 7]: 1.473
- logFC yjeH [1, 7]: 1.189
- MIC [2, 8]: >10 µM
- MIC in μM, SL1344 wt [2, 8]: >10 µM

Compound: CC(=O)N[C@@H](CCCNC(=N)N)C(=O)NCCCCCC(=O)N[C@@H](CCCNC(=N)N)C(=O)N[C@@H](CCCNC(=N)N)C(=O)NCCCCCC(=O)N[C@@H](CCCNC(=N)N)C(=O)N[C@@H](CCCNC(=N)N)C(=O)NCCCCCC(=O)N[C@@H](CCCNC(=N)N)C(=O)N[C@@H](CCCNC(=N)N)C(=O)NCCCCCC(=O)N[C@@H](CCCNC(=N)N)C(=O)NCCCCCC(=O)O [RXR, reference compound] (Ac-R[Ahx]RR[Ahx]RR[Ahx]RR[Ahx]R[Ahx]-OH; C-terminus assumed)
- number of differentially expressed genes ([1]; 10 μM Tat-constructs): 26
- fold change in gene expression of phoQ ([1]; RNA-seq, 5 μM, below cutoff of >2): 1.87 fold
- logFC AmgR [1, 6]: 1.916
- logFC mig-14 [1, 6]: 1.873
- logFC virK [1, 6]: 2.819
- logFC mgtA [1, 9]: 1.432
- logFC yfbE [1, 7]: 1.219
- MIC [2, 8]: >10 µM
- MIC in μM, SL1344 wt [2, 8]: >10 µM

Compound: CC(C)C[C@H](NC(=O)[C@H](CCCNC(=N)N)NC(=O)[C@@H](NC(=O)[C@@H]1CCCN1C(=O)[C@@H]1CCCN1C(=O)[C@@H]1CCCN1C(=O)[C@H](CC(C)C)NC(=O)[C@H](CCCNC(=N)N)NC(=O)[C@@H](NC(=O)[C@@H]1CCCN1C(=O)[C@@H]1CCCN1C(=O)[C@@H]1CCCN1C(=O)[C@H](CC(C)C)NC(=O)[C@H](CCCNC(=N)N)NC(=O)[C@@H](N)C(C)C)C(C)C)C(C)C)C(=O)N1CCC[C@H]1C(=O)N1CCC[C@H]1C(=O)N1CCC[C@H]1C(=O)O [SAP, reference compound] (H-VRLPPPVRLPPPVRLPPP-OH; N-terminus and C-terminus assumed)
- MIC [2, 8]: >10 µM

Compound: CC(C)C[C@H](NC(=O)[C@H](CCC(=O)O)NC(=O)[C@@H](NC(=O)[C@@H]1CCCN1C(=O)[C@@H]1CCCN1C(=O)[C@@H]1CCCN1C(=O)[C@H](CC(C)C)NC(=O)[C@H](CCC(=O)O)NC(=O)[C@@H](NC(=O)[C@@H]1CCCN1C(=O)[C@@H]1CCCN1C(=O)[C@@H]1CCCN1C(=O)[C@H](CC(C)C)NC(=O)[C@H](CCC(=O)O)NC(=O)[C@@H](N)C(C)C)C(C)C)C(C)C)C(=O)N1CCC[C@H]1C(=O)N1CCC[C@H]1C(=O)N1CCC[C@H]1C(=O)O [SAPE, reference compound] (H-VELPPPVELPPPVELPPP-OH; N-terminus and C-terminus assumed)
- MIC [2, 8]: >10 µM

Compound: CC(=O)NCC(=O)N[C@@H](CCCNC(=N)N)C(=O)N[C@@H](CCCCN)C(=O)N[C@@H](CCCCN)C(=O)N[C@@H](CCCCN)C(=O)N[C@@H](CCCNC(=N)N)C(=O)N[C@@H](CCCNC(=N)N)C(=O)N[C@@H](CCC(N)=O)C(=O)N[C@@H](CCCNC(=N)N)C(=O)N[C@@H](CCCNC(=N)N)C(=O)N[C@@H](CCCNC(=N)N)C(=O)N[C@@H](Cc1ccc(O)cc1)C(=O)N[C@@H](CCCCN)C(=O)O [Tat, reference compound] (Ac-GRKKKRRQRRRYK-OH)
- number of differentially expressed genes ([1]; 10 μM Tat-constructs): 97
- maximum fold change, mgtB ([1]; RNA-seq, 10 μM): 35 fold
- logFC AmgR [1, 6]: 3.7167
- logFC virK [1, 6]: 4.014
- logFC mgtA [1, 9]: 2.72
- logFC cigR [1, 10]: 3.46
- logFC phoN [1, 10]: 2.478
- MIC in μM, SL1344 wt [2, 8]: >20 µM

Compound: GRKKKRRQRRRYK [Tat-acpP-scr, Tat peptide conjugated to scrambled control PNA]
- MIC in μM, SL1344 ΔphoP [3]: 20 µM
- number of differentially expressed sRNAs, apart from AmgR upregulation ([1]; RNA-seq, 10 μM, listed as Tat-acpP-scrambled): 13
- logFC SL1344_0066A [1, 11]: 4.787
- logFC SL1344_2742 [1, 11]: 4.052
- logFC SL1344_1472 [1, 10]: 3.687
- logFC ccmE2 [1, 10]: 4.962
- logFC recJ ([1]; edgeR, versus water, 10 μM, triplicates, listed as PNATATscr): 2.253
- MIC [2, 12]: >20 µM
- MIC [2, 13]: >40 µM
- MIC in μM, SL1344 wt [2, 14]: >20 µM
- MIC in μM, LT2 wt [4]: >20 µM
- MIC in μM, LT2 PhoP^C [5]: >20 µM

Compound: KFFKFFKFFK [KFF-acpP-scr]
- MIC in μM, SL1344 ΔphoP [3]: ≥10 µM
- number of differentially expressed genes ([1]; 10 μM Tat-constructs): 10
- upregulation of AmgR transcript levels ([1]; RNA-seq, 5 μM, listed as KFF-acpP-scrambled): ~2 fold
- logFC mig-14 [1, 15]: 1.6196
- logFC virK [1, 15]: 2.3333
- logFC SL1344_1602 [1, 7]: 1.058
- logFC cdh-a [1, 7]: 0.9654
- logFC yfbE [1, 7]: 0.9577
- MIC [2, 12]: >10 µM
- MIC [2, 13]: >10 µM
- MIC in μM, SL1344 wt [2, 14]: >10 µM
- MIC in μM, LT2 wt [4]: >10 µM
- MIC in μM, LT2 PhoP^C [5]: >10 µM

Compound: RQIKIWFQNRRMKWKK [ANT-acpP-scr]
- MIC [2, 12]: >10 µM

Compound: RQIKIWFQNRRMKWKK [ANT-acpP]
- MIC ([2]; Table 1, ∼10^5 cfu/ml, non-cation-adjusted MHB, 37°C, 24 h): 12 µg/mL
- MIC [2, 12]: 3.3 µM

Compound: VELPPPVELPPPVELPPP [SAPE-acpP-scr]
- MIC [2, 12]: >10 µM

Compound: VRLPPPVRLPPPVRLPPP [SAP-acpP-scr]
- MIC [2, 12]: >10 µM

Source: article PMC8096218, “Global RNA profiles show target selectivity and physiological effects of peptide-delivered antisense antibiotics” (Nucleic Acids Research, 2021)
